Test [1] concerns the target T1, human 5-HT1A-serotoninergic receptor (Homo sapiens, UniProt P08908).
T1 construct: expressed in transfected cells; host or cells: HeLa
T1 sequence (P08908 1-422): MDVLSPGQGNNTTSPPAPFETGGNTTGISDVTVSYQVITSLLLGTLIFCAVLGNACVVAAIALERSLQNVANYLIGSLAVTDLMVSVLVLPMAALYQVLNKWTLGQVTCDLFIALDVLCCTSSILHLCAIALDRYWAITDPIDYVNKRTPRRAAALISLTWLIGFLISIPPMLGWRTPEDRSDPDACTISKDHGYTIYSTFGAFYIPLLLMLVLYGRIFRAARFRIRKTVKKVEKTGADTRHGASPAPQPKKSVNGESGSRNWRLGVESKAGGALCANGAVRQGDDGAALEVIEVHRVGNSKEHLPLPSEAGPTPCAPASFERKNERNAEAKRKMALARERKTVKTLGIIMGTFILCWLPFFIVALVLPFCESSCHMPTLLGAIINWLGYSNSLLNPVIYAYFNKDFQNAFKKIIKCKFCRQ
Description: Radioligand binding ([3H]8-OH-DPAT) to cloned 5-HT1A receptor in HeLa cell membranes. The following applies: mean Ki, read-out: Affinity for 5-HT1A receptor, Ki. From the text: Data were expressed as mean Ki.

In test [2] the target is T2, recombinant α1b-adrenoceptor (Homo sapiens, UniProt P35368).
T2 sequence (P35368 1-520): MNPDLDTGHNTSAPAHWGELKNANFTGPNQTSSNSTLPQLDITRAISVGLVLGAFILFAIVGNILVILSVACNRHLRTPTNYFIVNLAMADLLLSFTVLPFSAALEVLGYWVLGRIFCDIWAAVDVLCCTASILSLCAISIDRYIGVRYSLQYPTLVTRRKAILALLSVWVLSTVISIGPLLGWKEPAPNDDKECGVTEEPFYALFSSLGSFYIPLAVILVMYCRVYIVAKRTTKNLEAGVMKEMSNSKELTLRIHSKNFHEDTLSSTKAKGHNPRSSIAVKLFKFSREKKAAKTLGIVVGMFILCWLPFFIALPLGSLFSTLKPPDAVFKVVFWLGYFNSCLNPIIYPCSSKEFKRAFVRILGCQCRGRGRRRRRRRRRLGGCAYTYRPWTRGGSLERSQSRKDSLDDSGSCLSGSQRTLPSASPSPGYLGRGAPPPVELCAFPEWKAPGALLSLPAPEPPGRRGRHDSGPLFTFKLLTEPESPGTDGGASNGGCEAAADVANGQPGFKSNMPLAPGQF
Description: biochemical.
Description: (§1) Determination of Affinity for Cloned α1 Adrenergic Receptors and 5-HT1A Serotoninergic Receptors by Radioligand Binding Assay
(§2) Determination of affinity for cloned subtypes of the α1-adrenoceptor was performed in membranes from cells transfected by electroporation with DNA expressing the genes encoding each α1-adrenoceptor subtype.
(§3) Non-specific binding was determined in the presence of 10 μM phentolamine. Incubation was stopped by addition of ice-cold Tris buffer and rapid filtration through 0.2%-polyethyleneimine pretreated Schleicher & Schuell GF52 filters.

Test [3] has as its target T3, recombinant α1a-adrenoceptor (UniProt P35348).
T3 sequence (P35348 1-466): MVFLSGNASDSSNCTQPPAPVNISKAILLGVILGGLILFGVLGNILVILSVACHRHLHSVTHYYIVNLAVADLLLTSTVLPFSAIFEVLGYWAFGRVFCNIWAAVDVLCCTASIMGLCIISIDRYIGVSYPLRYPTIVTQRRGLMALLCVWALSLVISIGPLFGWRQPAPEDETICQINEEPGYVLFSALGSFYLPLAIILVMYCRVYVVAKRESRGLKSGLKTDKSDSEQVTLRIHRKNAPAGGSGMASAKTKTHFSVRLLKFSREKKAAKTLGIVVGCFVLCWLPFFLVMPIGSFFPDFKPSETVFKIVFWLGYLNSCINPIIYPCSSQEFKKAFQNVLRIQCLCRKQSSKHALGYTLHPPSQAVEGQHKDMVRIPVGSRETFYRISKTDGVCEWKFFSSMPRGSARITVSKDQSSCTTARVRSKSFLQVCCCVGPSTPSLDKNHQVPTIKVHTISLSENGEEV
The following applies: read-out: Affinity for recombinant α1a-adrenoceptor subtype, Ki; [3H]prazosin, membranes of transfected cells; mean Ki.
Description: as §1, §2, §3

In general, Ki refers to the dissociation constant of the complex between target and ligand, obtained from inhibition or displacement.

For the compound `Cc1onc(-c2ccccc2)c1C(=O)NCCCN1CCN(c2cc(Cl)ccc2O)CC1` [Example 2, N-{3-[4-(5-Chloro-2-hydroxyphenyl)-1-piperazinyl]propyl}-5-methyl-3-phenylisoxazole-4-carboxamide], the Ki stood at 49.5 nM in test [1] and 9.97 nM in test [2].
The like results for `Cc1onc(-c2ccccc2)c1C(=O)NCCCN1CCN(c2ccccc2OCC(F)(F)F)CC1` [Example 3, 5-Methyl-3-phenyl-N-{3-[4-[2-(2,2,2-trifluoroethoxy)phenyl]-1-piperazinyl]propyl}isoxazole-4-carboxamide] were, in that order, 11.7 nM and 36.2 nM.
As for `COc1ccc(OCC(F)(F)F)cc1N1CCN(CCCNC(=O)c2c(-c3ccccc3)noc2C)CC1` [Example 4, N-{3-[4-[2-Methoxy-5-(2,2,2-trifluoroethoxy)phenyl]-1-piperazinyl]propyl}-5-methyl-3-phenylisoxazole-4-carboxamide], in test [2], the Ki worked out at 570 nM.
As for `Cc1onc(-c2ccccc2)c1C(=O)NCCCN1CCN(c2cc(F)ccc2OCC(F)(F)F)CC1` [Example 5, N-{3-[4-[5-Fluoro-2-(2,2,2-trifluoroethoxy)phenyl]-1-piperazinyl]propyl}-5-methyl-3-phenylisoxazole-4-carboxamide], the Ki in test [1] worked out at 192 nM; in test [3], 0.05 nM; in test [2] it was 11.5 nM.
For the compound `Cc1onc(-c2ccccc2)c1C(=O)NCCCN1CCN(c2cc(Cl)ccc2OS(=O)(=O)C(F)(F)F)CC1` [Example 7, N-{3-[4-(5-Chloro-2-trifluoromethanesulphonyloxy)-1-piperazinyl]propyl}-5-methyl-3-phenylisoxazole-4-carboxamide], the Ki was at least 1000 nM in test [1] and 7.49 nM in test [2].
For the compound `Cc1onc(-c2c(F)cccc2Cl)c1C(=O)NCCCN1CCN(c2ccc(F)cc2OCC(F)(F)F)CC1` [Example 9, 3-(2-Chloro-6-fluorophenyl)-N-[3-[4-[4-fluoro-2-(2,2,2-trifluoroethoxy)phenyl]-1-piperazinyl]-propyl]-5-methylisoxazole-4-carboxamide], the results for the Ki in test [1] and in test [2] were 342 nM and 24.1 nM, respectively.
The like results for `Cc1onc(-c2c(Cl)cccc2Cl)c1C(=O)NCCCN1CCN(c2ccc(F)cc2OCC(F)(F)F)CC1` [Example 10, 3-(2,6-Dichlorophenyl)-N-[3-[4-[4-fluoro-2-(2,2,2-trifluoroethoxy)phenyl]-1-piperazinyl]pro-pyl]-5-methylisoxazole-4-carboxamide] were, in that order, 170 nM and 24.2 nM.
Regarding `Cc1onc(-c2ccccc2Cl)c1C(=O)NCCCN1CCN(c2ccc(F)cc2OCC(F)(F)F)CC1` [Example 11, 3-(2-Chlorophenyl)-N-[3-[4-[4-fluoro-2-(2,2,2-trifluoroethoxy)phenyl]-1-piperazinyl]propyl]-5-methylisoxazole-4-carboxamide], the inhibition constant (Ki) in test [1] amounted to 242 nM; in test [2] it was 31.2 nM.
The like results for `Cc1onc(-c2c(F)cccc2Cl)c1C(=O)NCCCN1CCN(c2ccccc2OCC(F)(F)F)CC1` [Example 12, 3-(2-Chloro-6-fluorophenyl)-5-methyl-N-[3-[4-[2-(2,2,2-trifluoroethoxy)phenyl]1-piperazi-nyl]propyl]isoxazole-4-carboxamide] were, in that order, 30 nM and 21.4 nM.

Source of the values: patent US6365591B1, “Isoxazolecarboxamide derivatives” (Recordati, S.A., Chemical and Pharmacueticals Company, priority 1999, dated 2002).
